Columns and labels:
CB1 and CB2 receptors = details: comparison of the two receptors; cited from earlier work
5-HT1A receptor = biological target: T1, 5-HT1A receptor (Homo sapiens, UniProt P08908); details: cited from earlier work
T1 sequence (P08908 1-422): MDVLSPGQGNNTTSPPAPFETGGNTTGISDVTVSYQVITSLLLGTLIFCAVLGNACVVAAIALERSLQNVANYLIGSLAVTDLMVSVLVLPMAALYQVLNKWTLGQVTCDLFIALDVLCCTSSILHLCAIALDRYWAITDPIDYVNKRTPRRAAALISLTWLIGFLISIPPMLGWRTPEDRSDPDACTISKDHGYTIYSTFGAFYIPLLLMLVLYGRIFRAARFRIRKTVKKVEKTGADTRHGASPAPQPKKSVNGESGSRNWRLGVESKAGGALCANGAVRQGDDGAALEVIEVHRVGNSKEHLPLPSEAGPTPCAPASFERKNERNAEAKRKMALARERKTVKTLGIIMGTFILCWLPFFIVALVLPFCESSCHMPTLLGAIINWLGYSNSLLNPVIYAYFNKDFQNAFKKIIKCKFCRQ

GPR55 = GPR55 (Homo sapiens, UniProt Q9Y2T6); details: cited from earlier work
[1] = test system: nausea of a patient undergoing chemotherapy; experiment: FIG. 11: nausea of a chemotherapy patient treated with 0.5 mg inhaled THC doses; assay type: in vivo, human; details: first 0.5 mg THC dose 30 minutes before chemotherapy
Method: FIG. 11 is a graphical representation of the treatment effect achieved by pulmonary delivery of 0.5 mg THC doses, delivered at time intervals of at least two hours, according to some embodiments of the invention.
In this example, nausea levels of a patient undergoing chemotherapy are shown, as indicated by the arbitrary Y-axis scale. The black line depicts a typical nausea effect that is often witnessed when no special anti-nausea treatment is provided (optionally other than the conventional prophylactic treatment provided normally intravenously in chemotherapy sessions).
Chemotherapy commenced at 7:00 AM, as indicated by the black arrow. […] It may remain high when not treated or even with conventional treatment, although the degree of nausea may fluctuate.
The gray line depicts nausea levels under treatment with 0.5 mg doses of THC, delivered in intervals of at least two hours, indicated by the grey triangles. […] Two additional doses of 0.5 mg THC each, delivered at 12:30 and at 19:00, sufficed to allow the patient to combat the nausea throughout the day.

[2] = cited from earlier work
pain = experiment: FIG. 10: pain treated with 0.5 mg inhaled THC doses at intervals of at least two hours; assay type: in vivo, human
Method: FIG. 10 is a graphical representation of a regimen for the treatment of pain by pulmonary delivery of 0.5 mg THC doses delivered in time intervals of at least two hours, according to some embodiments of the invention.
In this use over a time period of 16 hours, 4 doses of 0.5 mg THC each were provided at time intervals of at least two hours between sequential doses, indicated by the grey triangles. The black line represents the symptom level, in this case pain, and the grey line represents psychoactive effects.
The x-axis represents the time of day, and the y-axis represents an arbitrary scale for indicating symptom severity and level of psychoactivity. The scale represents, based on user reports, a grade of the symptoms and a grade of the psychoactive effects, for example compared to a baseline report collected from the patient before treatment.

[3] = test system: cancer patients suffering from advanced symptoms and/or side effects of chemotherapy; experiment: Inventors' experiments: low dose inhaled THC, at least two hours between doses; assay type: in vivo, human
Method: It has been shown by inventors in experiments performed that an inhaled THC dose of 0.2-2 mg may provide sufficient symptom alleviation for a time period of at least 2 hours, at least 3 hours, at least 4 hours, at least 6 hours or intermediate or longer time periods. […] Other examples of symptoms which may be alleviated by prescribing a low dose regimen may include adverse effects of chemotherapy and/or vomiting and/or weight loss and/or insomnia and/or euphoria and/or drowsiness and/or psychomotor effects and/or cognitive effects, and/or agitation and/or depression.
Cancer patients suffering from advanced symptoms and/or side effects of chemotherapy were treated in accordance with the above described regimen, being delivered a dose of between 0.2-2 mg THC at a single delivery event and waiting at least two hours before the next dose. The patients voluntarily reported their conditions.
In a first case, a cancer patient was admitted to hospital for chemotherapy. They were previously prescribed cannabis for pain, vomiting, nausea and weight loss, which they took by smoking cigarettes. […] In the experiment, the patient was prescribed 3×0.5 mg THC per day, delivered using an inhaler device for example as described hereinabove. The first dose was to be taken 30 minutes before chemotherapy. The patient was allowed to take additional inhalations as needed. […] The patient inhaled the 3 prescribed doses only, and no other medication was prescribed or taken. Later, the same patient readmitted to hospital for an additional round of chemotherapy. This time they chose to inhale THC in four 0.5 mg doses, a first dose in the morning before chemotherapy, second and third doses taken concomitantly at midday (amounting to a single 1 mg dose) and a fourth dose in the evening.
In a second case, a cancer patient was admitted to the hospital for severe pain and in order to resume treatment that they chose to terminate earlier. They were previously prescribed cannabis for pain, cachexia and nausea, in addition to other drugs. Throughout the treatment, they received a continuous morphine drip (400-600 mg) with additional morphine treatment upon need. Before being hospitalized, they had not eaten for a week, suffered from sleep deprivation and was depressed. In the hospital they were provided with an inhaler for example as described hereinabove and during the first day of use they inhaled 0.5 mg THC doses 18 times a day, which included 4 previously prescribed doses of 0.5 mg and many demands for additional pain relief. On the next day they reduced the intake to 1 mg inhalations, 4 times a day, continuing for a period of 8 days.

[4] = single inhaled cannabis dose, Syqe Inhaler

GPR55, sequence (Q9Y2T6 whole entry, species assumed): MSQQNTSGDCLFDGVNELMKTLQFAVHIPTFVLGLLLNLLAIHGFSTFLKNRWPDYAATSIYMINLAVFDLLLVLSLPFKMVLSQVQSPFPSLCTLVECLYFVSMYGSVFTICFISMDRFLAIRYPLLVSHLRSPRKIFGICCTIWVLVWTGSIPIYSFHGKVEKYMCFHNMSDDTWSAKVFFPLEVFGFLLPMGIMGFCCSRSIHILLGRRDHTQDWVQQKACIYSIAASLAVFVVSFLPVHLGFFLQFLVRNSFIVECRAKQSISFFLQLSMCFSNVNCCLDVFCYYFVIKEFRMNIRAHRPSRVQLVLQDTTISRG

| Compound | affinity for the CB1 and CB2 receptors (CB1 and CB2 receptors) | action at 5-HT1A receptor (5-HT1A receptor) | action at GPR55 (GPR55) | maximum nausea level reached [1] | onset of nausea [1] | Tmax±SD ([2]; single 15.1±0.1 mg dose of cannabis inhaled with Syqe Inhaler, eight patients) [min] | interindividual variability of Cmax [2, 4] [%] | plasma Cmax increase per mg Δ(9)-THC administered [2, 4] [ng/mL/mg THC] | time after dose at which pain level begins to rise again (pain; 0.5 mg THC inhaled) | pain level after first dose (pain; 0.5 mg THC inhaled at 6:30, arbitrary scale from user reports) | psychoactivity after first dose (pain; 0.5 mg THC inhaled, arbitrary scale from user reports) | eating ([3]; cancer patient, 0.5 mg THC 18 times on first day, then 1 mg 4 times a day for 8 days, with morphine drip) | mood ([3]; cancer patient, 3×0.5 mg THC per day by inhaler) | mood ([3]; cancer patient, inhaled THC with morphine drip) | time period of sufficient symptom alleviation ([3]; inhaled THC dose of 0.2-2 mg) | treatment outcome in additional round of chemotherapy ([3]; same patient, four 0.5 mg inhaled THC doses) |
| --- | --- | --- | --- | --- | --- | --- | --- | --- | --- | --- | --- | --- | --- | --- | --- | --- |
| C=C(C)[C@@H]1CCC(C)=C[C@H]1c1c(O)cc(CCCCC)cc1O [CBD, Cannabidiol] | greater affinity for the CB2 receptor than for the CB1 receptor | 5-HT1A receptor agonist | antagonist | – | – | – | – | – | – | – | – | – | – | – | – | – |
| CCCCCc1cc(O)c2c(c1)OC(C)(C)[C@@H]1CCC(C)=C[C@@H]21 [THC, Δ9-tetrahydrocannabinol] | approximately equal affinity for the CB1 and CB2 receptors | – | – | significant reduction in the maximum level reached | significant delay in the onset of nausea | 3 ± 1 | 25.3 | 12.3 | about 2 hours | effective to dramatically reduce the pain level | A rise in psychoactivity occurs | ate 3 meals per day | significantly improved mood | significant mood improvement | at least 2 hours | effective |

Source: patent US12582666B2, “Low dose therapeutic treatment” (Syqe Medical Ltd., priority 2016, dated 2026)
